Test results reported in patent US20240173295A1, “A STABLE, EMULSION-FORMING LIQUID COMPOSITION COMPRISING AMINO ACIDS” (Brain Luxury Inc., priority 2021, published 2024).
Like-named read-outs stand apart in the source and are kept apart here. Marks after values point to notes of the source that are not given here.

Test: Chemical stability of liquid composition on storage
Type: physicochemical
Protocol: The chemical stability of a disclosed liquid composition stored at 6° C. or 22° C. was evaluated at 2 months and three months. The microbial stability and shelf life was also evaluated. A liquid composition having a pH of about 3.7 was subjected to high pressure processing at 6000 bar for two cycles of 5 minutes.

[1] = stored at 6° C. or 22° C., adjusted for slightly lower oil volume in 3 months preparation (55 ml vs 60 ml)

| Compound | amount in liquid composition at 2 Months (chemical stability) (stored at 6° C. or 22° C.) | amount in liquid composition at 3 Months (chemical stability) [1] | amount in liquid composition at 2 Months (chemical stability) [mg/60 mL] | amount in liquid composition at 3 Months (chemical stability) | amount in liquid composition at 3 Months (chemical stability) (stored at 6° C. or 22° C.) [mg/60 mL] |
| --- | --- | --- | --- | --- | --- |
| docosapenataenoic acid | 632 mg/60 mL | 587* mg/60 mL | – | – | – |
| Medium chain triglycerides | – | – | 2209 | 2407* mg/60 mL | – |
| NCC(=O)O [Glycine] | 3319 mg/60 mL | – | – | – | 3303 |
| CC/C=C\C/C=C\C/C=C\CCCCCCCC(=O)O [alpha linoleic acid] | – | – | 1026 | 1025* mg/60 mL | – |
| [Mg+2] [Magnesium] | – | – | 15 | 27.8 mg/60 mL | – |
| Vitamin E | – | – | – | – | 2.2 |
| Vitamin D | 25 mcg/60 mL | 26* mcg/60 mL | – | – | – |
| [Zn] [Zinc] | 6 mg/60 mL | – | – | – | 5.7 |
| O=C1O[C@H]([C@@H](O)CO)C(O)=C1O [Vitamin C] | 326 mg/60 mL | – | – | – | 245 |
| [Na] [Sodium] | 1.23 mg/60 mL | – | – | – | 0.6 |
| N[C@@H](Cc1c[nH]c2ccccc12)C(=O)O [L-Tryptophan] | 420 mg/60 mL | – | – | – | 426 |
| CC/C=C\C/C=C\C/C=C\C/C=C\C/C=C\CCCC(=O)O [eicosapentaenoic acid] | 319 mg/60 mL | 297* mg/60 mL | – | – | – |
